# Measurements from US12371464B2, “Polypeptides and uses thereof” (MEDIMMUNE LIMITED, priority 2020, dated 2025).
# Numbered stars: 1 amine (or outer) side, 2 acyl side, 3 side chain; on linkers, the order of the positions; unused ones are H or OH. Bridge positions count the residues as written; N and C are the ends. Square brackets hold non-standard residues; d marks the D form. Side chains are listed from the residue outwards. Peptide text beside a SMILES is read from it. * marks the point of attachment. C18 diacid = O=C(O)CCCCCCCCCCCCCCCCC(=O)*; γGlu = O=C(O)[C@H](CCC(=O)[*:2])N[*:1]; αMeF = C[C@](N)(Cc1ccccc1)C(=O)O; Dab = NCC[C@H](N)C(=O)O; AEEA = NCCOCCOCC(=O)O; Aib = CC(C)(N)C(=O)O
# Assay: Thioflavin T fibrillation assay
# Type: physicochemical
# Conditions: 1 mg/mL in 25 mM sodium acetate buffer pH 4.0, 37° C., 6 days, orbital shaking; >144 h = no increase
# Procedure, shortened: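 Peptides at 1 mg/mL in 25 mM sodium acetate pH 4.0 were mixed with ThT (0.25 mM stock) and held 6 days at 37 °C with intermittent orbital shaking at 500–750 rpm. Fluorescence (ex 444/em 480 nm) was read every 30 min, with buffer baseline correction and 5 replicates. Value: mean time to a detectable fluorescence increase.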
row,Compound,Time taken to detect increase in fluorescence intensity [h]
1,"CC[C@H](C)[C@H](NC(=O)[C@H](C)NC(=O)[C@@H]1CCCN1C(=O)[C@H](Cc1ccccc1)NC(=O)[C@H](CC(N)=O)NC(=O)C(C)(C)NC(=O)[C@H](CO)NC(=O)[C@H](CO)NC(=O)[C@H](Cc1c[nH]cn1)NC(=O)[C@@H](NC(=O)[C@H](CC(C)C)NC(=O)[C@H](Cc1ccccc1)NC(=O)[C@H](CC(N)=O)NC(=O)[C@H](C)NC(=O)[C@H](CC(C)C)NC(=O)[C@H](CCCNC(=N)N)NC(=O)[C@H](CCC(N)=O)NC(=O)[C@@H](NC(=O)[C@H](C)NC(=O)[C@@H]1CSSC[C@H](NC(=O)[C@@H](N)CCCCNC(=O)CC[C@H](NC(=O)CC[C@H](NC(=O)CCCCCCCCCCCCCCCCC(=O)O)C(=O)O)C(=O)O)C(=O)N[C@@H](CC(N)=O)C(=O)N[C@@H]([C@@H](C)O)C(=O)N[C@@H](C)C(=O)N[C@@H]([C@@H](C)O)C(=O)N1)[C@@H](C)O)C(C)C)C(=O)N[C@@H](CC(C)C)C(=O)N[C@@H](CO)C(=O)N1CCC[C@H]1C(=O)N[C@H](C(=O)N[C@@H](CC(N)=O)C(=O)N[C@H](C(=O)NCC(=O)N[C@@H](CO)C(=O)N[C@@H](CC(N)=O)C(=O)N[C@H](C(=O)N[C@@H](Cc1ccc(O)cc1)C(N)=O)[C@@H](C)O)C(C)C)[C@@H](C)O [Peptide 9, K(γE-γE-C18diacid)[CNTATC]ATQRLANFLVHSS(Aib)NFPAILSPTNVGSNTY-amide] (H-K([γGlu-γGlu-C18 diacid])CNTATCATQRLANFLVHSS[Aib]NFPAILSPTNVGSNTY-NH2; disulfide 2-7; N-terminus assumed)",7
2,"CC[C@H](C)[C@H](NC(=O)[C@@H]1CCCN1C(=O)CNC(=O)[C@](C)(Cc1ccccc1)NC(=O)[C@H](CC(N)=O)NC(=O)[C@H](CC(N)=O)NC(=O)[C@H](CO)NC(=O)[C@H](CO)NC(=O)[C@H](Cc1c[nH]cn1)NC(=O)[C@H](CCCNC(=N)N)NC(=O)[C@H](CC(C)C)NC(=O)[C@H](Cc1ccccc1)NC(=O)[C@H](CC(N)=O)NC(=O)[C@H](C)NC(=O)[C@H](CC(C)C)NC(=O)[C@H](CCCNC(=N)N)NC(=O)[C@H](CCC(N)=O)NC(=O)[C@@H](NC(=O)[C@H](C)NC(=O)[C@@H]1CSSC[C@H](NC(=O)[C@@H](N)CCCCNC(=O)COCCOCCNC(=O)COCCOCCNC(=O)CC[C@H](NC(=O)CCCCCCCCCCCCCCCCC(=O)O)C(=O)O)C(=O)N[C@@H](CC(N)=O)C(=O)N[C@@H]([C@@H](C)O)C(=O)N[C@@H](C)C(=O)N[C@@H]([C@@H](C)O)C(=O)N1)[C@@H](C)O)C(=O)N[C@@H](CC(C)C)C(=O)N1CCC[C@H]1C(=O)N1CCC[C@H]1C(=O)N[C@H](C(=O)N[C@@H](CCC(=O)O)C(=O)N[C@H](C(=O)NCC(=O)N[C@@H](CO)C(=O)N[C@@H](CC(N)=O)C(=O)N[C@H](C(=O)N[C@@H](Cc1ccc(O)cc1)C(N)=O)[C@@H](C)O)C(C)C)[C@@H](C)O [Peptide 17, K(O2Oc-O2Oc-γE-C18diacid)[CNTATC]ATQRLANFLRHSSNN(αMePhe)GPILPPTEVGSNTY-amide] (H-K([AEEA-AEEA-γGlu-C18 diacid])CNTATCATQRLANFLRHSSNN[αMeF]GPILPPTEVGSNTY-NH2; disulfide 2-7; N-terminus assumed)",>144
3,"CC[C@H](C)[C@H](NC(=O)[C@@H]1CCCN1C(=O)CNC(=O)[C@](C)(Cc1ccccc1)NC(=O)[C@H](CC(N)=O)NC(=O)[C@H](CC(N)=O)NC(=O)[C@H](CO)NC(=O)[C@H](CO)NC(=O)[C@H](Cc1c[nH]cn1)NC(=O)[C@@H](NC(=O)[C@H](CC(C)C)NC(=O)[C@H](Cc1ccccc1)NC(=O)[C@H](CC(N)=O)NC(=O)[C@H](C)NC(=O)[C@H](CC(C)C)NC(=O)[C@H](CCCNC(=N)N)NC(=O)[C@H](CCC(N)=O)NC(=O)[C@@H](NC(=O)[C@H](C)NC(=O)[C@@H]1CSSC[C@H](NC(=O)[C@@H](N)CCCCNC(=O)CC[C@H](NC(=O)CC[C@H](NC(=O)CCCCCCCCCCCCCCCCC(=O)O)C(=O)O)C(=O)O)C(=O)N[C@@H](CC(N)=O)C(=O)N[C@@H]([C@@H](C)O)C(=O)N[C@@H](C)C(=O)N[C@@H]([C@@H](C)O)C(=O)N1)[C@@H](C)O)C(C)C)C(=O)N[C@@H](CC(C)C)C(=O)N1CCC[C@H]1C(=O)N1CCC[C@H]1C(=O)N[C@H](C(=O)N[C@@H](CC(N)=O)C(=O)N[C@H](C(=O)NCC(=O)N[C@@H](CO)C(=O)N[C@@H](CC(N)=O)C(=O)N[C@H](C(=O)N[C@@H](Cc1ccc(O)cc1)C(N)=O)[C@@H](C)O)C(C)C)[C@@H](C)O [Peptide 13, K(γE-γE-C18diacid)[CNTATC]ATQRLANFLVHSSNN(αMePhe)GPILPPTNVGSNTY-amide] (H-K([γGlu-γGlu-C18 diacid])CNTATCATQRLANFLVHSSNN[αMeF]GPILPPTNVGSNTY-NH2; disulfide 2-7; N-terminus assumed)",25
4,CC[C@H](C)[C@H](NC(=O)[C@@H]1CCCN1C(=O)CNC(=O)[C@H](Cc1ccccc1)NC(=O)[C@H](CC(N)=O)NC(=O)[C@H](CC(N)=O)NC(=O)[C@H](CO)NC(=O)[C@H](CO)NC(=O)[C@H](Cc1c[nH]cn1)NC(=O)[C@@H](NC(=O)[C@H](CC(C)C)NC(=O)[C@H](Cc1ccccc1)NC(=O)[C@H](CCN)NC(=O)[C@H](C)NC(=O)[C@H](CC(C)C)NC(=O)[C@H](CCCNC(=N)N)NC(=O)[C@H](CCC(N)=O)NC(=O)[C@@H](NC(=O)[C@H](C)NC(=O)[C@@H]1CSSC[C@H](NC(=O)[C@H](CCCCN)NC(=O)[C@@H](N)CCCCNC(=O)CC[C@H](NC(=O)CCCCCCCCCCCCCCCCC(=O)O)C(=O)O)C(=O)N[C@@H](CC(N)=O)C(=O)N[C@@H]([C@@H](C)O)C(=O)N[C@@H](C)C(=O)N[C@@H]([C@@H](C)O)C(=O)N1)[C@@H](C)O)C(C)C)C(=O)N[C@@H](CC(C)C)C(=O)N1CCC[C@H]1C(=O)N1CCC[C@H]1C(=O)N[C@H](C(=O)N[C@@H](CC(N)=O)C(=O)N[C@H](C(=O)NCC(=O)N[C@@H](CO)C(=O)N[C@@H](CC(N)=O)C(=O)N[C@H](C(=O)N[C@@H](Cc1ccc(O)cc1)C(N)=O)[C@@H](C)O)C(C)C)[C@@H](C)O [Peptide 33] (H-K([γGlu-C18 diacid])KCNTATCATQRLA[Dab]FLVHSSNNFGPILPPTNVGSNTY-NH2; disulfide 3-8; N-terminus assumed),>144
5,"CC[C@H](C)[C@H](NC(=O)[C@@H]1CCCN1C(=O)CNC(=O)[C@](C)(Cc1ccccc1)NC(=O)[C@H](CC(N)=O)NC(=O)[C@H](CC(N)=O)NC(=O)[C@H](CO)NC(=O)[C@H](CO)NC(=O)[C@H](Cc1c[nH]cn1)NC(=O)[C@@H](NC(=O)[C@H](CC(C)C)NC(=O)[C@H](Cc1ccccc1)NC(=O)[C@H](CC(N)=O)NC(=O)[C@H](C)NC(=O)[C@H](CC(C)C)NC(=O)[C@H](CCCNC(=N)N)NC(=O)[C@H](CCC(N)=O)NC(=O)[C@@H](NC(=O)[C@H](C)NC(=O)[C@@H]1CSSC[C@H](NC(=O)[C@@H](N)CCCCNC(=O)CC[C@H](NC(=O)CCCCCCCCCCCCCCCCC(=O)O)C(=O)O)C(=O)N[C@@H](CC(N)=O)C(=O)N[C@@H]([C@@H](C)O)C(=O)N[C@@H](C)C(=O)N[C@@H]([C@@H](C)O)C(=O)N1)[C@@H](C)O)C(C)C)C(=O)N[C@@H](CC(C)C)C(=O)N1CCC[C@H]1C(=O)N1CCC[C@H]1C(=O)N[C@H](C(=O)N[C@@H](CCCNC(=N)N)C(=O)N[C@H](C(=O)NCC(=O)N[C@@H](CO)C(=O)N[C@@H](CC(N)=O)C(=O)N[C@H](C(=O)N[C@@H](Cc1ccc(O)cc1)C(N)=O)[C@@H](C)O)C(C)C)[C@@H](C)O [Peptide 25, K(γE-C18diacid)[CNTATC]ATQRLANFLVHSSNN(αMePhe)GPILPPTRVGSNTY-amide] (H-K([γGlu-C18 diacid])CNTATCATQRLANFLVHSSNN[αMeF]GPILPPTRVGSNTY-NH2; disulfide 2-7; N-terminus assumed)",>144
6,"CC[C@H](C)[C@H](NC(=O)[C@@H]1CCCN1C(=O)CNC(=O)[C@H](Cc1ccccc1)NC(=O)[C@H](CC(N)=O)NC(=O)C(C)(C)NC(=O)[C@H](CO)NC(=O)[C@H](CO)NC(=O)[C@H](Cc1c[nH]cn1)NC(=O)[C@@H](NC(=O)[C@H](CC(C)C)NC(=O)[C@H](Cc1ccccc1)NC(=O)[C@H](CC(N)=O)NC(=O)[C@H](C)NC(=O)[C@H](CC(C)C)NC(=O)[C@H](CCCNC(=N)N)NC(=O)[C@H](CCC(N)=O)NC(=O)[C@@H](NC(=O)[C@H](C)NC(=O)[C@@H]1CSSC[C@H](NC(=O)[C@H](CCCCN)NC(=O)[C@@H](N)CCCCNC(=O)CC[C@H](NC(=O)CCCCCCCCCCCCCCCCC(=O)O)C(=O)O)C(=O)N[C@@H](CC(N)=O)C(=O)N[C@@H]([C@@H](C)O)C(=O)N[C@@H](C)C(=O)N[C@@H]([C@@H](C)O)C(=O)N1)[C@@H](C)O)C(C)C)C(=O)N[C@@H](CC(C)C)C(=O)N1CCC[C@H]1C(=O)N1CCC[C@H]1C(=O)N[C@H](C(=O)NC(C)(C)C(=O)N[C@H](C(=O)NCC(=O)N[C@@H](CO)C(=O)N[C@@H](CC(N)=O)C(=O)N[C@H](C(=O)N[C@@H](Cc1ccc(O)cc1)C(N)=O)[C@@H](C)O)C(C)C)[C@@H](C)O [Peptide 80, K(γE-C18diacid)K[CNTATC]ATQRLANFLVHSS(Aib)NFGPILPPT(Aib)VGSNTY-amide] (H-K([γGlu-C18 diacid])KCNTATCATQRLANFLVHSS[Aib]NFGPILPPT[Aib]VGSNTY-NH2; disulfide 3-8; N-terminus assumed)",>144
